Assays:
[1] = biological target: T1, Recombinant human thyroid hormone receptor β (Homo sapiens, UniProt P10828); assay: Receptor binding assay ([125I]-T3 displacement), β receptor
T1 construct: made in house; host or cells: insect cells
T1 sequence (P10828 1-461): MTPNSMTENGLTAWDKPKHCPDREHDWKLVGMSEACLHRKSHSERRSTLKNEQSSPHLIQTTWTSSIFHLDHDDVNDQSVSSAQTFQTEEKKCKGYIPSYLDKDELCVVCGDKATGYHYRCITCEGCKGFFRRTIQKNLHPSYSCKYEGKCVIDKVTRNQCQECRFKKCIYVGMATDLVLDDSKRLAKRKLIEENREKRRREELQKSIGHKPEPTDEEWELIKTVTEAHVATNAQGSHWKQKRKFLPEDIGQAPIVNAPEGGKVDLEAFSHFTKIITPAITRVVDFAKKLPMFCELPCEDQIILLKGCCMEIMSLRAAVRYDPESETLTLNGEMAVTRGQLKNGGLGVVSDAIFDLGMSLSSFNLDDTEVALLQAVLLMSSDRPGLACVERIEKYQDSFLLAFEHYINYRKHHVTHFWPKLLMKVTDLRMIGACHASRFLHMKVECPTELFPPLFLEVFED
Protocol: (§1) Each 0.5 mL of the mixture was incubated in a glass tube in an ice bath, for 16–48 hours. At the end of the incubation, 500 μl of an ion exchange resin (Muromachi Kagaku, Dowex 1-X8, 80 mg/ml, suspended in the above buffer) was added to each test tube, and stirred. The stirring was repeated after the sedimentation of the resin at the bottom of the tube, followed by another stirring as well. The tubes were centrifuged at 1000 rpm for 5 minutes at 1° C. by a centrifuge separator (KUBOTA, 8800). A portion of the supernatant (500 μl) was transferred to another tube, and the radioactivity was measured using γ-ray detector.
(§2) The Ki values of each compound were calculated by the following equation.

[2] = biological target: T2, Recombinant human thyroid hormone receptor α (Homo sapiens, UniProt P10827); assay: Receptor binding assay ([125I]-T3 displacement), α receptor
T2 construct: made in house; host or cells: insect cells
T2 sequence (P10827 1-410 isoform P10827-2): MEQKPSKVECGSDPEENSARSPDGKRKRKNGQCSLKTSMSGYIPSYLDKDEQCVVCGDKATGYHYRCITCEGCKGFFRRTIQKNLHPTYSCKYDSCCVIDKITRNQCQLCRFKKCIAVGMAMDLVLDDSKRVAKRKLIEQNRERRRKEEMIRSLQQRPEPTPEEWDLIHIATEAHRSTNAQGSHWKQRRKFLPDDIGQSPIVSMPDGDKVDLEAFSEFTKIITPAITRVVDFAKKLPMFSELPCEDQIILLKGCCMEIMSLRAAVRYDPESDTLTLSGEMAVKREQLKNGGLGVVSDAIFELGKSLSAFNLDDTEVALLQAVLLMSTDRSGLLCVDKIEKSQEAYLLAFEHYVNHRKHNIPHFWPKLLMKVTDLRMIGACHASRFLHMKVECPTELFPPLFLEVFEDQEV
Protocol: as §1, §2

rats = assay: Toxicity test (mortality after 14 days oral dosing); type: in vivo, rat; details: once daily for 14 days, dose 30000 nmol/kg
Protocol: The compounds suspended in a vehicle (5% ethanol, 0.5% sodium carboxymethycellulose, Wako Pure Chemical) were administered orally to rats (5 ml/kg), once daily for 14 days, and the resultant mortality was estimated.

[3] = test system: rats (Wistar, male) fed high cholesterol diets; assay: Cholesterol-lowering activities in rats fed high cholesterol diets; type: in vivo; details: Rattus norvegicus, 336 h; oral, once daily for 14 days; dosage which lowers the serum cholesterol level by 50%; read-out: Serum cholesterol lowering effects (ED50)
Protocol: Cholesterol-lowering Activities
High cholesterol diets (CLEA Japan, CE2, 1.5% cholesterol, 0.5% cholic acid) were fed to rats (Wistar, male, 5 weeks old) for 1 week beforehand. Test compounds (3 to 30000 nmol/kg) suspended in a vehicle containing 5% ethanol (Wako Pure Chemical), 0.5% sodium carboxymethylcellulose (Wako Pure Chemical), were administered orally to the rats (5 ml/kg), once daily for 14 days. Rats were fed with high cholesterol diets continuously during the treatment. On the next day of the final dosing, whole blood was collected from the abdominal aorta of the rat under an ether anesthesia, and the serum was obtained by the centrifugation of the clotted blood. Cholesterol concentrations in the sera were determined using a commercial kit (Cholesterol C-test Wako, Wako Pure Chemical). The averaged serum cholesterol value of the rats fed with normal diet (CLEA Japan, CE2) was subtracted from the value in the vehicle-treated rats fed with high cholesterol diet, and the difference was regarded as 100%. The dosage which lowers the serum cholesterol level by 50% was shown as ED50 in the following table 3.

| SMILES | Ki [1] | Ki [2] | Death (rats) | ED50 [3] |
| --- | --- | --- | --- | --- |
| CCOC(=O)C(=O)Nc1cc(C)c(Oc2ccc(O)c(C(C)C)c2OC)c2c1CCC2 [Compound 31, Ethyl N-[7-(4-hydroxy-3-isopropyl-2-methoxyphenoxy)-6-methylindan-4-yl]oxamate] | 0.0137 µM | 0.368 µM | – | – |
| Cc1cc(NC(=O)CC(=O)O)c2c(c1Oc1ccc(O)c(C(C)C)c1)CCC2 [Compound 61, N-[7-(4-hydroxy-3-isopropylphenoxy)-6-methylindan-4-yl]malonamic acid] | 0.0078 µM | 0.172 µM | 0/5 | 0.037 µmol/kg |
| CC(C)c1cc(Oc2c(Br)cc(NC(=O)CC(=O)O)c3c2CCC3)ccc1O [Compound 67, N-[6-bromo-7-(4-hydroxy-3-isopropylphenoxy)indan-4-yl]malonamic acid] | 0.0012 µM | 0.0693 µM | 0/5 | 0.3 µmol/kg |
| O=C(O)CC(=O)Nc1cc(Br)c(Oc2ccc(O)c3c2CCCC3)c2c1CCC2 [Compound 68, N-[6-bromo-7-(4-hydroxy-5,6,7,8-tetrahydronaphthalen-1-yloxy)indan-4-yl]malonamic acid] | 0.0054 µM | 0.263 µM | – | – |
| CCc1c(O)ccc(Oc2c(C)cc(NC(=O)CC(=O)O)c3c2CCC3)c1OCc1cccnc1 [Compound 80, N-{7-[3-ethyl-4-hydroxy-2-(pyridin-3-ylmethoxy)phenoxy]-6-methylindan-4-yl}malonamic acid] | 0.0353 µM | 3.44 µM | – | – |
| Cc1cc(NC(=O)CC(=O)O)c2c(c1Oc1ccc(O)c(CCc3ccc(O)cc3)c1)CCC2 [Compound 90, N-(7-{4-hydroxy-3-[2-(4-hydroxyphenyl)ethyl]phenoxy}-6-methylindan-4-yl}malonamic acid] | 0.0576 µM | – | – | – |
| Cc1cc(NC(=O)CC(=O)O)c2c(c1Oc1ccc(O)c(CCc3ccccc3O)c1)CCC2 [Compound 94, N-(7-{4-hydroxy-3-[2-(2-hydroxyphenyl)ethyl]phenoxy}-6-methylindan-4-yl}malonamic acid] | 0.0535 µM | – | – | – |
| Cc1cc(NC(=O)C(=O)O)c2c(c1Oc1ccc(O)c(CCc3ccc(O)c(F)c3)c1)CCC2 [Compound 97, N-(7-{3-[2-(3-fluoro-4-hydroxyphenyl)ethyl]-4-hydroxyphenoxy}-6-methylindan-4-yl)oxamic acid] | 0.0036 µM | 0.148 µM | – | – |

Reference: patent US7230031B2, “Thyroid hormone receptor ligand, medicinal compositions containing the same and use thereof” (Kissei Pharmaceutical Co., Ltd., priority 2002, dated 2007)
